Here are results for 26 compounds from patent publication US7459453B2, “Pyridazin-3(2H)-one derivatives as PDE4 inhibitors” (Laboratorios Almirall, S.A., priority 2002, dated 2008).

For the test, the system named is PDE4. Nature of the test: PDE4 Assay Procedure ([3H]-cAMP SPA). Type of test: biochemical. The settings on record: 15 nM [3H]-cAMP, SPA beads, 1 hour at room temperature; compounds tested from 10 μM to 10 pM. As to the method: Compounds to be tested were resuspended in DMSO at a stock concentration of 1 mM. The compounds were tested at different concentrations varying from 10 μM to 10 pM to calculate an IC50. These dilutions were done in 96-well plates. In some cases, plates containing diluted compounds were frozen before being assayed. In these cases, the plates were thawed at room temperature and stirred for 15 minutes.
Ten microliters of the diluted compounds were poured into a “low binding” assay plate. Eighty microliters of reaction mixture containing 50 mM Tris pH 7.5, 8.3 mM MgCl2, 1.7 mM EGTA, and 15 nM [3H]-cAMP were added to each well. The reaction was initiated by adding ten microliters of a solution containing PDE4. The plate was then incubated under stirring for 1 hour at room temperature. After incubation the reaction was stopped with 50 microliters of SPA beads, and the reaction was allowed to incubate for another 20 minutes at room temperatures before measuring radioactivity using standard instrumentation.
The reaction mixture was prepared by adding 90 ml of H2O to 10 ml of 10× assay buffer (500 mM Tris pH 7.5, 83 mM MgCl2, 17 mM EGTA), and 40 microliters 1 μCi/μL [3H]-cAMP. SPA beads solution was prepared by adding 500 mg to […] H2O for a final concentration of 20 mg/ml beads and 18 mM zinc sulphate.
Take `CCn1nc(-c2ccccc2)c(C(C)=O)c(Nc2cccc(F)c2)c1=O` [Example 1, 5-Acetyl-2-ethyl-4-[(3-fluorophenyl)amino]-6-phenylpyridazin-3(2H)-one]: the IC50 stood at 7.7 nM. As for `CCn1nc(-c2ccccc2)c(C(C)=O)c(Nc2cccc3ccccc23)c1=O` [Example 8, 5-Acetyl-2-ethyl-4-(1-naphthylamino)-6-phenylpyridazin-3(2H)-one], the figure is 2 nM; as for `CCn1nc(-c2ccccc2)c(C(C)=O)c(Nc2ccccc2Cl)c1=O` [Example 13, 5-Acetyl-4-[(2-chlorophenyl)amino]-2-ethyl-6-phenylpyridazin-3(2H)-one], 9.3 nM. As for `CCn1nc(-c2ccc(SC)cc2)c(C(C)=O)c(Nc2ccc(C(=O)O)cc2)c1=O` [Example 23, 4-({5-Acetyl-2-ethyl-6-[4-(methylthio)phenyl]-3-oxo-2,3-dihydropyridazin-4-yl}amino)benzoic acid], the figure is 9.5 nM; as for `CCn1nc(-c2ccc([S+](C)[O-])cc2)c(C(C)=O)c(Nc2ccccc2C)c1=O` (centres unmarked) [Example 31, 5-Acetyl-2-ethyl-4-[(2-methylphenyl)amino]-6-[4-(methylsulphinyl)phenyl]pyridazin-3(2H)-one], 20 nM; as for `CC(=O)c1c(-c2ccccc2)nn(C)c(=O)c1Nc1cc(F)cc(F)c1` [Example 39, 5-Acetyl-4-[(3,5-difluorophenyl)amino]-2-methyl-6-phenylpyridazin-3(2H)-one], 16 nM.

The compound `CC(=O)c1c(-c2ccccc2)nn(CC2CC2)c(=O)c1Nc1cccc(F)c1` [Example 45, 5-Acetyl-2-(cyclopropylmethyl)-4-[(3-fluorophenyl)amino]-6-phenylpyridazin-3(2H)-one] gave an IC50 of 7.8 nM. Compound `CC(=O)c1c(-c2ccccc2)nn(CC2CC2)c(=O)c1Nc1cccc(Cl)c1` [Example 46, 5-Acetyl-4-[(3-chlorophenyl)amino]-2-(cyclopropylmethyl)-6-phenylpyridazin-3(2H)-one] gave an IC50 of 8.9 nM. As to `CCn1nc(-c2ccccc2)c(C(C)=O)c(Nc2ccc(C(=O)O)cc2)c1=O` [Example 50, 4-[(5-Acetyl-2-ethyl-3-oxo-6-phenyl-2,3-dihydropyridazin-4-yl)amino]benzoic acid], the IC50 is 14 nM.

Compound `CCn1nc(-c2ccccc2)c(C(C)=O)c(Nc2cccc(Cl)c2)c1=O` [Example 52, 5-Acetyl-4-[(3-chlorophenyl)amino]-2-ethyl-6-phenylpyridazin-3(2H)-one] yielded an IC50 of 12 nM. Regarding `CCn1nc(-c2ccccc2)c(C(C)=O)c(Nc2cccc(C#N)c2)c1=O` [Example 72, 3-[(5-Acetyl-2-ethyl-3-oxo-6-phenyl-2,3-dihydropyridazin-4-yl)amino]benzonitrile], inhibition was half-maximal at 6 nM (IC50). `CCn1nc(-c2cccc(Cl)c2)c(C(C)=O)c(Nc2ccc(C(=O)O)cc2)c1=O` [Example 86, 4-[5-Acetyl-6-(3-chlorophenyl)-2-ethyl-3-oxo-2,3-dihydropyridazin-4-ylamino]benzoic acid] registered an IC50 of 14 nM. As for `CCn1nc(-c2cccc(Cl)c2)c(C(C)=O)c(Nc2cccc(F)c2)c1=O` [Example 88, 5-Acetyl-6-(3-chlorophenyl)-2-ethyl-4-[(3-fluorophenyl)amino]pyridazin-3(2H)-one], the figure is 6.1 nM; as for `CCn1nc(-c2cccc(F)c2)c(C(C)=O)c(Nc2cccc(F)c2)c1=O` [Example 91, 5-Acetyl-2-ethyl-4-[(3-fluorophenyl)amino]-6-(3-fluorophenyl)pyridazin-3(2H)-one], 5.9 nM. As for `CCn1nc(-c2cccc(F)c2)c(C(C)=O)c(Nc2cccc(Cl)c2)c1=O` [Example 92, 5-Acetyl-4-[(3-chlorophenyl)amino]-2-ethyl-6-(3-fluorophenyl)pyridazin-3(2H)-one], the figure is 8.7 nM. The same measure for `CCn1nc(-c2cccc([N+](=O)[O-])c2)c(C(C)=O)c(Nc2cccc3ccccc23)c1=O` [Example 97, 5-Acetyl-2-ethyl-4-(naphthalen-1-ylamino)-6-(3-nitrophenyl)pyridazin-3(2H)-one]: 0.5 nM; for `CC(=O)c1c(-c2ccccc2)nn(CC2CC2)c(=O)c1Nc1cc(F)cc(F)c1` [Example 109, 5-Acetyl-2-cyclopropylmethyl-4-(3,5-difluoro-phenylamino)-6-phenyl-2H-pyridazin-3-one]: 0.26 nM; for `CCn1nc(-c2ccccc2)c(C(=O)CCc2ccccc2)c(Nc2cccc(Cl)c2)c1=O` [Example 120, 4-[(3-Chlorophenyl)amino]-2-ethyl-6-phenyl-5-(3-phenylpropanoyl)pyridazin-3(2H)-one]: 7.1 nM. The compound `CCn1nc(-c2cccc(F)c2)c(C(C)=O)c(Nc2ccc(CO)cc2)c1=O` [Example 176, 5-Acetyl-2-ethyl-6-(3-fluorophenyl)-4-{[4-(hydroxymethyl)phenyl]amino}pyridazin-3(2H)-one] returned an IC50 of 19 nM. The same measure for `CCn1nc(-c2ccc(F)cc2)c(C(C)=O)c(Nc2ccc(CO)cc2)c1=O` [Example 181, 5-Acetyl-2-ethyl-6-(4-fluorophenyl)-4-{[4-(hydroxymethyl)phenyl]amino}pyridazin-3(2H)-one]: 25 nM.

`CCn1nc(-c2ccccc2)c(C(C)=O)c(Nc2ccc(F)c(Cl)c2)c1=O` [Example 190, 5-Acetyl-4-[(3-chloro-4-fluorophenyl)amino]-2-ethyl-6-phenylpyridazin-3(2H)-one] showed an IC50 of 9.3 nM.

For the compound `CCn1nc(-c2ccccc2)c(C(C)=O)c(Nc2ccc(C#N)cc2)c1=O` [Example 231, 4-[(5-Acetyl-2-ethyl-3-oxo-6-phenyl-2,3-dihydropyridazin-4-yl)amino]benzonitrile], 20 nM corresponded to half-maximal inhibition (IC50). Compound `CCn1nc(-c2ccccc2)c(C(C)=O)c(Nc2cccc(C(N)=O)c2)c1=O` [Example 232, 3-[(5-Acetyl-2-ethyl-3-oxo-6-phenyl-2,3-dihydropyridazin-4-yl)amino]benzamide] displayed an IC50 of 13 nM. `CCn1nc(-c2ccccc2)c(C(C)=O)c(Nc2c(F)cc(F)cc2F)c1=O` [Example 263, 5-Acetyl-2-ethyl-6-phenyl-4-[(2,4,6-trifluorophenyl)amino]pyridazin-3(2H)-one] showed an IC50 of 15 nM. The same measure for `CCn1nc(-c2ccccc2)c(C(C)=O)c(Nc2cc(F)c(F)c(F)c2)c1=O` [Example 264, 5-Acetyl-2-ethyl-6-phenyl-4-[(3,4,5-trifluorophenyl)amino]pyridazin-3(2H)-one]: 11 nM; for `CCn1nc(-c2ccccc2)c(C(=O)OCc2ccccc2)c(Nc2cccc(Cl)c2)c1=O` [Example 274, Benzyl 5-[(3-chlorophenyl)amino]-1-ethyl-6-oxo-3-phenyl-1,6-dihydropyridazine-4-carboxylate]: 5.5 nM.
